Substitutions are numbered along the chain they refer to.
What was measured:
[1] = Phase 3 study, ERT-naïve Fabry patients: echocardiography (LVMi); type: in vivo, human; conditions: for mean (SD) change in LVMi: baseline (or month 6) to month 24; for LVMi change: after 24 months of treatment
Experimental: Patient Enrollment. […] Study Design. […] Echocardiography. LVMi, left posterior wall thickness, diastolic, interventricular septum thickness, diastolic and other parameters were assessed through blinded, centralized evaluation. For all outcomes except GL-3 inclusions per kidney interstitial capillary, data are pooled for patients within phenotype subgroups regardless of treatment allocation for the first six months (migalastat or placebo).

[2] = target: T1, α-Gal A mutant form p.Leu36Trp (c.107 T > G) (Homo sapiens, UniProt P06280, L36W); experiment: HEK assay: α-Gal A activity in HEK-293 cell lysate with migalastat; type: cell-based
T1 construct: expressed in transfected cells; host or cells: HEK-293
T1 sequence (P06280 32-429 L36W): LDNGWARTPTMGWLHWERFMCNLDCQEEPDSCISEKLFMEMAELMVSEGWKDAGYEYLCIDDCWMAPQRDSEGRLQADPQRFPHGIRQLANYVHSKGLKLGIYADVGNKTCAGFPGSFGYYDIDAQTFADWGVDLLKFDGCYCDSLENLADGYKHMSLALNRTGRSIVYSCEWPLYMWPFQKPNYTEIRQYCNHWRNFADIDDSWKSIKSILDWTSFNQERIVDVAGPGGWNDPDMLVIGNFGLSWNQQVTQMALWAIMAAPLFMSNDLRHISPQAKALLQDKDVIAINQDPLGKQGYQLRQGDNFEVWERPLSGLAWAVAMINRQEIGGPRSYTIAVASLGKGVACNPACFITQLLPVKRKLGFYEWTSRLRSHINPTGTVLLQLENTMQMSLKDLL
In short: (§1)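 Each disease-causing α-Gal A variant, expressed transiently in HEK-293 cells, was treated plus or minus migalastat from 17 nM up to 1 mM during 4 to 5 days; lysates were assayed for α-Gal A using 4-MU-α-Gal fluorescence or western blotting.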

[3] = target: T2, α-Gal A mutant form p.Asp244Asn (c.730 G > A) (Homo sapiens, UniProt P06280, D244N); experiment: as above; type: cell-based
T2 construct: expressed in transfected cells; host or cells: HEK-293
T2 sequence (P06280 32-429 D244N): T1 sequence (P06280 32-429 L36W) with W5L, D213N
In short: as §1

[4] = target: T3, α-Gal A mutant form p.Gly258Arg (c.772 G > C) (Homo sapiens, UniProt P06280, G258R); experiment: as above; type: cell-based
T3 construct: expressed in transfected cells; host or cells: HEK-293
T3 sequence (P06280 32-429 G258R): T1 sequence (P06280 32-429 L36W) with W5L, G227R
In short: as §1

[5] = target: T4, α-Gal A mutant form p.Ile317Thr (c.950 T > C) (Homo sapiens, UniProt P06280, I317T); experiment: as above; type: cell-based
T4 construct: expressed in transfected cells; host or cells: HEK-293
T4 sequence (P06280 32-429 I317T): T1 sequence (P06280 32-429 L36W) with W5L, I286T
In short: as §1

[6] = target: T5, α-Gal A mutant form p.Ile270Thr (c.809 T > C) (Homo sapiens, UniProt P06280, I270T); experiment: as above; type: cell-based
T5 construct: expressed in transfected cells; host or cells: HEK-293
T5 sequence (P06280 32-429 I270T): T1 sequence (P06280 32-429 L36W) with W5L, I239T
In short: as §1

[7] = +10 μM migalastat, HEK-293 cell lysate, mean ± SEM, n = 20
[8] = HEK293, 10 μM migalastat minus baseline, read-out: Absolute increase at 10 μM (% WT)

Structure (SMILES): OC[C@H]1NC[C@H](O)[C@@H](O)[C@H]1O [migalastat]
- classic male patients with data reporting a reduction in LVMi ([1]; classic male patients, age range 16-61 years): 7/8
- mean (SD) change in LVMi ([1]; classic males): −16.7 (18.64) g/m^2
- mean (SD) change in LVMi ([1]; other patients): −3.2 (18.66) g/m^2
- LVMi change ([1]; overall migalastat-treated population): −7.7 g/m^2
- LVMi change ([1]; patients with LVH): −18.6 g/m^2
- α-Gal A activity at 10 μM (fold over baseline) ([2]; 10 μM migalastat): 21.49 fold over baseline
- +Migalastat α-Gal A activity [2, 7]: 5182 ± 463 nmol/mg/h
- +Migalastat α-Gal A activity % WT [2, 7]: 16.6 ± 2.1 % WT
- activation at 10 µM [2, 8]: 15.9%
- α-Gal A activity at 10 μM (fold over baseline) ([3]; 10 μM migalastat): 1.58 fold over baseline
- +Migalastat α-Gal A activity [3, 7]: 16321 ± 402 nmol/mg/h
- +Migalastat α-Gal A activity % WT [3, 7]: 48.7 ± 1.7 % WT
- activation at 10 µM [3, 8]: 17.8%
- α-Gal A activity at 10 μM (fold over baseline) ([4]; 10 μM migalastat): 2.37 fold over baseline
- +Migalastat α-Gal A activity [4, 7]: 22630 ± 801 nmol/mg/h
- +Migalastat α-Gal A activity % WT [4, 7]: 78.1 ± 5.8 % WT
- activation at 10 µM [4, 8]: 45.5%
- α-Gal A activity at 10 μM (fold over baseline) ([5]; 10 μM migalastat): 3.40 fold over baseline
- +Migalastat α-Gal A activity [5, 7]: 7812 ± 530 nmol/mg/h
- +Migalastat α-Gal A activity % WT [5, 7]: 23.6 ± 1.0 % WT
- activation at 10 µM [5, 8]: 17%
- α-Gal A activity at 10 μM (fold over baseline) ([6]; 10 μM migalastat): 6.73 fold over baseline
- +Migalastat α-Gal A activity [6, 7]: 12416 ± 377 nmol/mg/h
- +Migalastat α-Gal A activity % WT [6, 7]: 42.8 ± 3.0 % WT
- activation at 10 µM [6, 8]: 36.5%

Reference: US20210038579A1, “Treatment Of Patients With Classic Fabry Disease” (Amicus Therapeutics, Inc., priority 2018, published 2021)
